Measurements taken from US6878689B2, “Preventives or remedies for heart failure” (Kaken Pharmaceutical Co., Ltd., priority 2000, dated 2005).
Where a SMILES comes first, the peptide text is derived from it. [ ]: non-standard residue; d: D form. d2Nal = N[C@H](Cc1ccc2ccccc2c1)C(=O)O

System: papillary muscle of guinea-pig
Assay: Myocardial contractility (developed tension) in isolated, electrically driven papillary muscle of guinea-pig
Conditions: cumulative 10, 30 and 100 μM; n=5; FIG. 1
Procedure: [Test Example 1] Myocardial Contractility Enhancing Action of Pralmorelin in the Papillary Muscle of Guinea-Pig
The direct effect of pralmorelin on myocardial contractility was evaluated using the isolated cardiac muscle of guinea-pigs according to the standard method for evaluating myocardial contractility. • 1. Materials and Experimental Method • 1) Animal Used
Male Hartley guinea-pigs (body weight, 301-350 g; Japan SLC) were purchased. The animals were accommodated to an environment at a temperature of 23±2° C. and a humidity of 55±15% under 12-hr light/dark cycles while they were allowed to eat and drink water ad libitum until they weighed 360-480 g. Each test substance was tested on a group of five animals. • 2) Reagents Used
The test substances were pralmorelin dihydrochloride (KP-102), representatives of growth hormone secretagogues such as hexarelin, ghrelin and ibutamorelin methanesulfonate (the last being hereunder referred to as MK-0677) (which were prepared by the method described in JP 6-263737 A (kokai)), as well as a recombinant human growth hormone (Sumitomo Pharmaceutical) and amrinone (Sigma) which is a known therapeutic of acute heart failure. KP-102, hexarelin and MK-0677 were dissolved in distilled water. Ghrelin was dissolved in physiological saline. Amrinone was first dissolved in dimethyl sulfoxide and then diluted with physiological saline. The growth hormone was dissolved in a dedicated solubilizer (0.3 w/v % metacresol and 3.9 w/v % D-mannitol). None of the test substance solutions should be added in an amount exceeding 1 w/v %. All reagents other than the test substances were guaranteed products of Nacalai Tesque. • 3) Preparing Specimens of the Isolated Papillary Muscle
The guinea-pigs were stunned with a blow to the back of their head; thereafter, the carotid artery was incised and the animals were exsanguinated to death. The chest was opened, the blood vessels in the upper part of the heart were cut and the heart was removed. The heart was immediately transferred into a Krebs-Henseleit (K-H) nutrient solution (NaCl, 118.0 mM; KCl, 4.7 mM; CaCl2. 2H2O, 1.0 mM; KH2PO4, 1.2 mM; MgSO4.7H2O, 1.2 mM; NaHCO3, 25.0 mM; glucose, 11.0 mM) that had been fully aerated with 95% O2-5% CO2. The heart was fixed on a rubber-lined Petri dish with needles such that its front face was seen. The ventricular wall of the upper right ventricle (toward the atrium) was excised transversely along the atrium, then excised longitudinally along the interventricular septum so that the ventricular wall was opened to expose the right ventricular papillary muscle. Subsequently, the entire surface of the left ventricle was cut open from the aorta (down) to the apex and the anterior wall of the left ventricle was opened wide, to both right and left, and fixed to expose the papillary muscle of the left ventricle. The tricupsid or mitral valve was cut off from the ventricle and the papillary muscle was cut off at the base to prepare a specimen of papillary muscle. The base of the specimen was fixed to field stimulating electrodes in an organ bath filled with 15 mL of the nutrient solution. The tendinous cord adhering to the valve was tied up with a thread and connected to an FD pickup (TB-612T, Nihon Kohden). A resting tension of 0.5 g was loaded and the papillary muscle was driven with an electric stimulator (SEN-3201, Nihon Kohden) at a frequency of 1 Hz by pulses of 20-ms duration and at a voltage intensity about 1.2 times the threshold. After an equilibration period of about 1 hr, KP-102, hexarelin and amrinone were each applied cumulatively up to amounts of 10, 30 and 100 μM. After examination of the changes in inotropic action due to the application of the test substances, 12.5 mM of CaCl2 was added and the maximum tension that was developed by each specimen was obtained. […]

`C[C@H](NC(=O)[C@@H](Cc1ccc2ccccc2c1)NC(=O)[C@@H](C)N)C(=O)N[C@@H](Cc1c[nH]c2ccccc12)C(=O)N[C@H](Cc1ccccc1)C(=O)N[C@@H](CCCCN)C(N)=O` [KP-102, D-alanyl-3-(naphthalen-2-yl)-D-alanyl-L-alanyl-L-tryptophyl-D-phenylalanyl-L-lysinamide] (H-[dA][d2Nal]AW[dF]K-NH2) was tested, and the “tension development (positive inotropic action) vs baseline” value was “significant effect over the baseline value”.
